The supplement of paper PMC10307832

Tests used:
Experiment in all cases: relative viability (nuclei count vs DMSO), 5 days (fraction); higher = more cells survive
[1] = compound: C1=CC2=C(C=C(C(=C2N=C1)O)N=NC3=CC4=C(C=C3)C=C(C=C4)S(=O)(=O)O)S(=O)(=O)O + Cc1cc(Nc2cc(N3CCN(C)CC3)nc(Sc3ccc(NC(=O)C4CC4)cc3)n2)n[nH]1 [Tozasertib] (partner 0.1 µM)
Method in brief: (§1)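 Dosing by pin tool came one day after lung cancer cell lines were seeded in 1536-well plates, using either one drug or a fixed anchor-drug dose plus five library-drug doses (not always all listed) in √10 steps. After 5 days, nuclei were counted on 4× images. Relative viability is treated-well nuclei count divided by vehicle-well nuclei count, and values are medians of duplicate plates.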

AT-7519 + Palbociclib = compound: O=C(NC1CCNCC1)c1n[nH]cc1NC(=O)c1c(Cl)cccc1Cl [AT-7519] + CC(=O)c1c(C)c2cnc(Nc3ccc(N4CCNCC4)cn3)nc2n(C2CCCC2)c1=O [Palbociclib] (partner 0.5 µM)
Method in brief: as §1

AT-7519 + Linsitinib = compound: O=C(NC1CCNCC1)c1n[nH]cc1NC(=O)c1c(Cl)cccc1Cl [AT-7519] + C[C@]1(O)C[C@@H](c2nc(-c3ccc4ccc(-c5ccccc5)nc4c3)c3c(N)nccn32)C1 [Linsitinib] (partner 1 µM)
Method in brief: as §1

AT-7519 + Navitoclax = compound: O=C(NC1CCNCC1)c1n[nH]cc1NC(=O)c1c(Cl)cccc1Cl [AT-7519] + CC1(C)CCC(c2ccc(Cl)cc2)=C(CN2CCN(c3ccc(C(=O)NS(=O)(=O)c4ccc(N[C@H](CCN5CCOCC5)CSc5ccccc5)c(S(=O)(=O)C(F)(F)F)c4)cc3)CC2)C1 [Navitoclax] (partner 0.5 µM)
Method in brief: as §1

Cell Line	relative viability ([1]; first compound 0.08 µM)	relative viability ([1]; first compound 0.253 µM)	relative viability ([1]; first compound 0.8 µM)	relative viability ([1]; first compound 2.53 µM)	relative viability ([1]; first compound 8 µM)	relative viability (AT-7519 + Palbociclib; first compound 0.01 µM)	relative viability (AT-7519 + Palbociclib; first compound 0.3162 µM)	relative viability (AT-7519 + Palbociclib; first compound 1 µM)	relative viability (AT-7519 + Linsitinib; first compound 0.01 µM)	relative viability (AT-7519 + Linsitinib; first compound 0.03162 µM)	relative viability (AT-7519 + Linsitinib; first compound 0.3162 µM)	relative viability (AT-7519 + Linsitinib; first compound 1 µM)	relative viability (AT-7519 + Navitoclax; first compound 0.01 µM)	relative viability (AT-7519 + Navitoclax; first compound 0.03162 µM)	relative viability (AT-7519 + Navitoclax; first compound 0.3162 µM)	relative viability (AT-7519 + Navitoclax; first compound 1 µM)	relative viability (AT-7519 + Palbociclib; first compound 0.03162 µM)
HARA	0.105	0.107	0.102	0.111	0.117	0.194	0.273	0.233	1.15	0.92	0.945	0.671	1.07	1.12	1.12	0.97	–
NCI-H838	0.238	0.214	0.272	0.285	0.266	0.233	0.194	0.1	1.03	1.01	0.74	0.149	1.22	1.06	1.09	0.147	0.21
NCI-H1755	0.608	0.539	0.555	0.615	0.577	0.477	0.435	0.458	1	0.993	1.03	0.967	1.05	0.983	1.02	0.986	0.478
HCC-78	0.41	0.345	0.469	0.488	0.349	0.423	0.611	0.479	0.52	0.452	0.567	0.374	0.743	0.664	0.901	0.685	0.431
IA-LM	–	–	–	–	–	–	–	–	0.765	0.491	0.442	0.548	0.917	0.865	0.69	0.435	–
NCI-H322M	0.541	0.468	0.433	0.496	0.47	0.501	0.419	0.473	0.95	0.926	0.962	0.946	1.07	1.16	1.09	1.07	0.486
NCI-H650	0.703	0.671	0.749	0.737	0.79	0.329	0.296	0.452	0.854	0.791	1.04	0.693	–	–	–	–	0.335
NCI-H1792	–	–	–	–	–	–	0.692	0.837	0.291	0.358	0.441	0.444	0.406	0.552	0.642	0.752	–
ChaGo-K-1	0.238	0.198	0.205	0.205	0.244	0.952	0.922	0.869	–	–	–	–	0.971	1.39	0.726	0.982	0.938
NCI-H2342	0.52	0.576	0.566	0.465	0.569	0.53	0.497	0.533	–	–	–	–	–	–	–	–	0.491
NCI-H1299	–	–	–	–	–	–	–	–	1.1	0.96	0.946	0.645	1.12	1.02	1.08	1.24	–
NCI-H1650	0.4	0.347	0.45	0.407	0.231	0.284	0.27	0.164	–	–	–	–	1.32	1.21	1.2	0.291	0.331
SW 900	0.566	0.559	0.536	0.599	0.469	0.552	0.512	0.463	–	–	–	–	–	–	–	–	0.595
NCI-H596	1.16	0.926	0.834	0.818	1.04	–	–	–	1.04	0.91	0.973	0.897	1	1.06	0.951	0.637	–
NCI-H1648	0.432	0.422	0.615	0.533	0.507	0.32	0.242	0.245	–	–	–	–	–	–	–	–	–
NCI-H522	0.583	0.556	0.609	0.539	0.631	0.969	0.995	0.788	–	–	–	–	–	–	–	–	0.967
A549	–	–	–	–	–	–	–	–	0.658	0.552	0.629	0.39	1.18	1.25	1.15	0.837	–
NCI-H2170	0.678	0.714	0.753	0.774	0.638	0.418	0.345	0.423	–	–	–	–	0.566	0.497	0.61	0.45	0.427
NCI-H661	0.333	0.347	0.341	0.369	0.343	0.382	0.4	0.256	0.46	0.513	0.538	0.343	–	–	–	–	0.432
NCI-H1563	–	–	–	–	–	–	–	–	1.2	1.25	1.25	1	–	–	–	–	–
ABC-1	0.155	0.199	0.176	0.167	0.132	0.778	0.549	0.442	0.784	0.715	0.788	0.243	–	–	–	–	0.702
LCLC-103H	0.514	0.504	0.457	0.477	0.501	0.513	0.432	0.418	0.955	1.04	1.1	1.13	–	–	–	–	0.42
